Data from US11992497B2 (priority 2021, dated 2024).

How the values were obtained:
HCT116 [1] = assay: GI50 by clonogenic assay; format: cell-based; conditions: Homo sapiens
Description: (§1) For colonogenic assay, the compounds were tested at 4 concentrations for 1 week or 2 weeks on 4 colon cancer cell lines. The compounds, concentrations, colon cancer cell line panel and end time point tested are the following: • CBG: 0 μM, 10 μM, 20 μM, 40 μM, and 80 μM. • Compound 1: 0 μM, 5 μM, 7.5 μM, 10 μM, and 20 μM. • Compound 2: 0 μM, 10 μM, 20 μM, 40 μM, and 80 μM. • Colon cancer cell line panel and end time point: SW620, HCT15, HCT116, 1 week; HT29, 2 weeks
(§2) Four colon cancer cell lines of SW620, HCT15, HT29, and HCT116 were included in the colon cancer cell line panel.
(§3) CBG, compound 1 and compound 2 were dissolved in DMSO at a concentration of 10 mM and stored at −20° C.
(§4) Evaluation of DM compounds treatment-induced growth inhibition was performed to determine the GI50 of four colon cancer cell lines with MTS assay or clonogenic assay. Each experiment was repeated in triplicate. In GraphPad Prism, data were log-transformed and fit with a nonlinear curve to calculate the GI50.
(§5) Clonogenic assay. cells were plated at 6 well plates at a density of 2,500 cells per well. After 24 hours, cells were treated with DM compounds at increasing concentrations or DMSO vehicle and incubated for 1 week or 2 weeks. Cells were then fixed and stained with 1% crystal violet (Sigma-Aldrich) solution. Quantification was performed using ImageJ. Each experiment was repeated in triplicate. In GraphPad Prism, data were log-transformed and fit with a nonlinear curve to calculate the GI50.

HT29 [2] = assay: GI50 by clonogenic assay; format: cell-based; conditions: Homo sapiens
Description: as §1, §2, §3, §4, §5

SW620 [3] = assay: GI50 by clonogenic assay; format: cell-based; conditions: Homo sapiens
Description: as §1, §2, §3, §4, §5

HCT15 [4] = assay: GI50 by clonogenic assay; format: cell-based; conditions: Homo sapiens
Description: as §1, §2, §3, §4, §5

HCT116 [5] = assay: GI50 by MTS assay; format: cell-based; conditions: Homo sapiens, HCT-116
Description: (§6) For MTS assay, the compounds have been tested at 8 concentrations on 4 colon cancer cell lines for 48 hours. The compounds, concentrations and colon cancer cell line panel tested are the following: • CBG: 0 μM, 1.25 μM, 2.5 μM, 5 μM, 10 μM, 20 μM, 40 μM, and 80 μM. • Compound 1: 0 μM, 1.25 μM, 2.5 μM, 5 μM, 10 μM, 20 μM, 40 μM, and 80 μM. • Compound 2: 0 μM, 1.25 μM, 2.5 μM, 5 μM, 10 μM, 20 μM, 40 μM, and 80 μM. • Colon cancer cell line panel: SW620, HCT15, HT29, HCTl16
as §2, §3, §4
(§7) MTS assay. cells were plated at 96 well plates at a density of 1,000 cells per well. After 24 hours, cells were treated with DM compounds at increasing concentrations or DMSO vehicle and incubated for 48 hours. 20 μl of MTS reagent (Promega) was then added and incubated for 2 hours. The absorbance was measured with a microplate reader at 490 nm. Each experiment was repeated in triplicate. In GraphPad Prism, data were log-transformed and fit with a nonlinear curve to calculate the GI50.

HT29 [6] = assay: GI50 by MTS assay; format: cell-based; conditions: Homo sapiens, HT-29
Description: as §6, §2, §3, §4, §7

SW620 [7] = assay: GI50 by MTS assay; format: cell-based; conditions: Homo sapiens, SW-620
Description: as §6, §2, §3, §4, §7

HCT15 [8] = assay: GI50 by MTS assay; format: cell-based; conditions: Homo sapiens, HCT-15
Description: as §6, §2, §3, §4, §7

[9] = PK study of CBG, Compound 1 and Compound 2, PO or IP; format: in vivo, male Sprague Dawley rats; conditions: CBG 30 mg/kg PO and IP; Compound 1 31.5 mg/kg PO; Compound 2 32.7 mg/kg PO
Description: This study evaluated the pharmacokinetics of (E)-2-(3,7-dimethylocta-2,6-dien-1-yl)-3-methoxy-5-pentylphenol (1) and (E)-2-(3,7-dimethylocta-2,6-dien-1-yl)-1,3-dimethoxy-5-pentylbenzene (2) following oral (PO) or intraperitoneal (IP) administration to male Sprague Dawley rats.
For the oral formulation the test article was added to the appropriate amount of Maisine and stirred until uniform. Next Labrasol was added to the formulation and allowed to stir until uniform. Finally, water will be slowly added to the stirring formulation to achieve the final volume.
For the IP formulation the test article was added to the appropriate amount of ethanol and stirred until uniform. Next, the appropriate amount of tween-20 was added to the stirred formulation. Finally, the appropriate amount of saline was slowly added to the stirred formulation to achieve the final volume.
Animals were fasted the evening prior to dosing with food returned at 4 h postdose, and the animals weighed on the morning of dose administration.
IP doses were administered via injection to the intraperitoneal region. PO doses were delivered into the stomach via syringe and gavage tube.
Blood was collected from via direct jugular stick or from the tail vein. Blood samples were kept on ice until being centrifuged at 3200 RPM for 10 minutes at ˜5° C. within 1 h of collection. Plasma was split into 2 cryovials in approximately equal volumes (0.05 mLs) and stored at −20° C.±5° C. until shipment.

[10] = HCT-116, 168 h, HCT116 cells, 1 week, read-out: GI50 (clonogenic assay)
[11] = HCT-116, clonogenic assay, HCT116, average of N1-N3, read-out: GI50 AVG
[12] = HCT-116, clonogenic assay, HCT116, replicate N1, read-out: GI50 N1
[13] = HCT-116, clonogenic assay, HCT116, replicate N2, read-out: GI50 N2
[14] = HCT-116, clonogenic assay, HCT116, replicate N3, read-out: GI50 N3
[15] = HT-29, 336 h, HT29 cells, 2 weeks, read-out: GI50 (clonogenic assay)
[16] = HT-29, clonogenic assay, HT29, average of N1-N3, read-out: GI50 AVG
[17] = HT-29, clonogenic assay, HT29, replicate N1, read-out: GI50 N1
[18] = HT-29, clonogenic assay, HT29, replicate N2, read-out: GI50 N2
[19] = HT-29, clonogenic assay, HT29, replicate N3, read-out: GI50 N3
[20] = SW-620, 168 h, SW620 cells, 1 week, read-out: GI50 (clonogenic assay)
[21] = SW-620, clonogenic assay, SW620, average of N1-N3, read-out: GI50 AVG
[22] = SW-620, clonogenic assay, SW620, replicate N1, read-out: GI50 N1
[23] = SW-620, clonogenic assay, SW620, replicate N2, read-out: GI50 N2
[24] = SW-620, clonogenic assay, SW620, replicate N3, read-out: GI50 N3
[25] = HCT-15, 168 h, HCT15 cells, 1 week, read-out: GI50 (clonogenic assay)
[26] = HCT-15, clonogenic assay, HCT15, average of N1-N3, read-out: GI50 AVG
[27] = HCT-15, clonogenic assay, HCT15, replicate N1, read-out: GI50 N1
[28] = HCT-15, clonogenic assay, HCT15, replicate N2, read-out: GI50 N2
[29] = HCT-15, clonogenic assay, HCT15, replicate N3, read-out: GI50 N3
[30] = HCTl116 cells, 48 hours, read-out: GI50 (MTS assay)
[31] = MTS assay, HCT116, 48 hours, replicate N1, read-out: GI50 N1
[32] = MTS assay, HCT116, 48 hours, replicate N2, read-out: GI50 N2
[33] = MTS assay, HCT116, 48 hours, replicate N3, read-out: GI50 N3
[34] = HT29 cells, 48 hours, read-out: GI50 (MTS assay)
[35] = MTS assay, HT29, 48 hours, replicate N1, read-out: GI50 N1
[36] = MTS assay, HT29, 48 hours, replicate N2, read-out: GI50 N2
[37] = MTS assay, HT29, 48 hours, replicate N3, read-out: GI50 N3
[38] = MTS assay, SW620, 48 hours, replicate N1, read-out: GI50 N1
[39] = MTS assay, SW620, 48 hours, replicate N2, read-out: GI50 N2
[40] = MTS assay, SW620, 48 hours, replicate N3, read-out: GI50 N3
[41] = SW620 cells, 48 hours, read-out: GI50 (MTS assay)
[42] = HCT15 cells, 48 hours, read-out: GI50 (MTS assay)
[43] = MTS assay, HCT15, 48 hours, average of N1-N3, read-out: GI50 AVG
[44] = MTS assay, HCT15, 48 hours, replicate N1, read-out: GI50 N1
[45] = MTS assay, HCT15, 48 hours, replicate N2, read-out: GI50 N2
[46] = MTS assay, HCT15, 48 hours, replicate N3, read-out: GI50 N3

CCCCCc1cc(OC)c(C/C=C(\C)CCC=C(C)C)c(OC)c1 [Compound 2, (E)-2-(3,7-dimethylocta-2,6-dien-1-yl)-1,3-dimethoxy-5-pentylbenzene]
GI50 (HCT116 [1]; [10]): 43.1 ± 7.68 µM
GI50 (HCT116 [1]; [11]): 43.1 µM
GI50 (HCT116 [1]; [12]): 53.4 µM
GI50 (HCT116 [1]; [13]): 40.6 µM
GI50 (HCT116 [1]; [14]): 35.1 µM
GI50 (HT29 [2]; [15]): 34.5 ± 14.4 µM
GI50 (HT29 [2]; [16]): 34.5 µM
GI50 (HT29 [2]; [17]): 51.1 µM
GI50 (HT29 [2]; [18]): 25 µM
GI50 (HT29 [2]; [19]): 27.3 µM
GI50 (SW620 [3]; [20]): 41.7 ± 5.9 µM
GI50 (SW620 [3]; [21]): 41.7 µM
GI50 (SW620 [3]; [22]): 47.8 µM
GI50 (SW620 [3]; [23]): 41.2 µM
GI50 (SW620 [3]; [24]): 36 µM
GI50 (HCT15 [4]; [25]): 35.9 ± 8.95 µM
GI50 (HCT15 [4]; [26]): 35.9 µM
GI50 (HCT15 [4]; [27]): 46.2 µM
GI50 (HCT15 [4]; [28]): 30.5 µM
GI50 (HCT15 [4]; [29]): 31 µM
GI50 (HCT116 [5]; [30]): > 80 µM
GI50 (HCT116 [5]; [31]): > 80 µM
GI50 (HCT116 [5]; [32]): > 80 µM
GI50 (HCT116 [5]; [33]): > 80 µM
GI50 (HT29 [6]; [34]): > 80 µM
GI50 (HT29 [6]; [35]): > 80 µM
GI50 (HT29 [6]; [36]): > 80 µM
GI50 (HT29 [6]; [37]): > 80 µM
GI50 (SW620 [7]; [38]): > 80 µM
GI50 (SW620 [7]; [39]): > 80 µM
GI50 (SW620 [7]; [40]): > 80 µM
GI50 (SW620 [7]; [41]): > 80 µM
GI50 (HCT15 [8]; [42]): > 80 µM
GI50 (HCT15 [8]; [43]): 35.9 µM
GI50 (HCT15 [8]; [44]): > 80 µM
GI50 (HCT15 [8]; [45]): > 80 µM
GI50 (HCT15 [8]; [46]): > 80 µM
glucuronidation / glucuronide formation in plasma (in words) [9]: completely blocked glucuronide formation

CCCCCc1cc(O)c(C/C=C(\C)CCC=C(C)C)c(O)c1 [CBG, cannabigerol]
GI50 (HCT116 [1]; [10]): 17.4 ± 4.91 µM
GI50 (HCT116 [1]; [11]): 17.4 µM
GI50 (HCT116 [1]; [12]): 21.1 µM
GI50 (HCT116 [1]; [13]): 20.7 µM
GI50 (HCT116 [1]; [14]): 10.5 µM
GI50 (HT29 [2]; [15]): 9.09 ± 1.71 µM
GI50 (HT29 [2]; [16]): 9.09 µM
GI50 (HT29 [2]; [17]): 8.11 µM
GI50 (HT29 [2]; [18]): 8.09 µM
GI50 (HT29 [2]; [19]): 11.1 µM
GI50 (SW620 [3]; [20]): 20.6 ± 1.95 µM
GI50 (SW620 [3]; [21]): 20.6 µM
GI50 (SW620 [3]; [22]): 18.9 µM
GI50 (SW620 [3]; [23]): 22.7 µM
GI50 (SW620 [3]; [24]): 20.1 µM
GI50 (HCT15 [4]; [25]): 17.4 ± 2.89 µM
GI50 (HCT15 [4]; [26]): 17.4 µM
GI50 (HCT15 [4]; [27]): 15.6 µM
GI50 (HCT15 [4]; [28]): 20.7 µM
GI50 (HCT15 [4]; [29]): 15.9 µM
GI50 (HCT116 [5]; [30]): 41.4 ± 1.87 µM
GI50 (HCT116 [5]; MTS assay, HCT116, 48 hours, average of N1-N3, read-out: GI50 AVG): 41.4 µM
GI50 (HCT116 [5]; [31]): 40 µM
GI50 (HCT116 [5]; [32]): 44.1 µM
GI50 (HCT116 [5]; [33]): 40.2 µM
GI50 (HT29 [6]; [34]): 43.6 ± 4.02 µM
GI50 (HT29 [6]; MTS assay, HT29, 48 hours, average of N1-N3, read-out: GI50 AVG): 43.6 µM
GI50 (HT29 [6]; [35]): 42.6 µM
GI50 (HT29 [6]; [36]): 48 µM
GI50 (HT29 [6]; [37]): 40.1 µM
GI50 (SW620 [7]; MTS assay, SW620, 48 hours, average of N1-N3, read-out: GI50 AVG): 39 µM
GI50 (SW620 [7]; [38]): 39.5 µM
GI50 (SW620 [7]; [39]): 39.4 µM
GI50 (SW620 [7]; [40]): 38 µM
GI50 (SW620 [7]; [41]): 40 ± 0.84 µM
GI50 (HCT15 [8]; [42]): 43.6 ± 5.74 µM
GI50 (HCT15 [8]; [43]): 43.6 µM
GI50 (HCT15 [8]; [44]): 50.2 µM
GI50 (HCT15 [8]; [45]): 30.2 µM
GI50 (HCT15 [8]; [46]): 40.7 µM
glucuronidation / glucuronide formation in plasma (in words) [9]: converted by glucuronidation to CBG-glucoronide
